Measured values from publication PMC10354055, “An optimized Nurr1 agonist provides disease-modifying effects in Parkinson’s disease models” (Nature Communications, 2023).
Where “and” joins values, the source holds several entries; their conditions need not be identical. Equal entries are not always repeated. Where two headings read alike, the source gives them in different places.

What was measured:
MPTP-induced male mice = experiment: Rotarod, sub-chronic MPTP-induced PD model mice; type: in vivo, mouse; details: for Latency to fall: Figure 4b, MPTP-induced mice, individual animal values
Description: MPTP (Sigma-Aldrich) was intraperitoneally (i.p.) injected (30 mg/kg) for 5 days (Day 1-5). […] To test dyskinetic involuntary behavior, an L-DOPA injected group was included, which received 50 mg/kg of L-DOPA and 15 mg/kg of benserazide (Sigma-Aldrich) (i.p.) for 16 days (Day 1–16). All compounds were administered 6 h post-MPTP injection to avoid any effect of compounds on the MPTP metabolism in the brain. Motor and non-motor related behavior tests were performed on the following days as described in Fig. 4a in an assessor- and observer-blinded fashion. Pre-training and baseline setup for motor-related behaviors were performed 3 days prior to the injections. Mice were sacrificed and subjected to immunohistochemistry. Mice were housed at the Animal Care Facilities of McLean Hospital under a 12-h light/12-h dark cycle, ambient temperature and humidity. Animals were handled in accordance with McLean Hospital’s Institutional Animal Care and Use Committee (Protocol #: 2015N000002) and followed National Institutes of Health guidelines.
Mice were pre-trained on an automated 5-lane rotarod unit (10 rpm, 3 min) for 2 days and the baseline was measured (10 rpm, 90 sec) before the rotarod test (3 days before the MPTP injection or the first rotarod test at week 2). Rotarod measurements were performed using an accelerating protocol, accelerated smoothly from 2 to 30 rpm for 5 min. Time on the rotating rod was measured automatically by placing a trip switch under the floor beneath the rotating drum.

[1] = test system: AAV-αSyn-induced male mice; experiment: Cylinder test, AAV-αSyn-induced PD model mice; type: in vivo, mouse; details: αSynWT and αSynA53T mice; CQ 40, 4A7C-301 5 mg/kg/day i.p.
Excerpt: Adeno-associated viruses (AAVs) expressing GFP only or αSyn (wild-type or A53T) were kindly provided by Dr. Yoon Seong Kim from the University of Central Florida. Recombinant AAV vectors were produced using modified pAAV-IRES-hrGFP (Agilent) to express wild-type and mutant human αSyn under control of the CMV promoter. Viral particles (AAV2) were produced at the University of Iowa Viral Vector Core according to standard operating procedures (https://medicine.uiowa.edu/vectorcore/). […] AAV vectors were delivered into the substantia nigra unilaterally by stereotaxic surgery.
Mice were placed in a transparent plastic cylinder (15.5 cm high, 12.7 cm diameter) with a mirror behind it. Spontaneous activity was recorded and measured as counting the number of rearing events for 3 min session. A rear was considered only when the mouse touched the wall of the cylinder with its forelimb paws while standing on its hindlimbs (vertical movement) to count meaningful physiological movements.

[2] = test system: mouse ventral mesencephalic (VM) primary cells; experiment: Dopaminergic gene expression, qRT-PCR, primary VM cells with 6-OHDA; type: cell-based; details: for dopaminergic gene expression (in words): VM primary cells, decreased by 6-OHDA, CQ 20 µM, 4A7C-301 0.5 µM
Description: (§1) Total RNA was extracted using the GeneJET RNA Purification Kit (Thermo Fisher Scientific) and 100 ng of RNA was subjected to cDNA synthesis using Invitrogen Superscript cDNA Synthesis Kit (Invitrogen) according to the manufacturer’s protocol. qRT-PCR was performed using a CFX Connect Real-Time System (Bio-Rad) in a 20 μl volume mixture containing 2X SsoAdvanced Universal SYBR Green Supermix (Bio-Rad), 100 ng/μl of forward and reverse primers, and 1 μl of cDNA sample. Gene expression levels were quantified by the 2^∆∆CT method (Ct of target gene—Ct of glyceraldehyde-3-phosphate dehydrogenase (GAPDH). The following primers were used for qRT-PCR: TH forward: 5′-[…]-3′, reverse: 5′-[…]-3′; DAT forward: 5′-[…]-3′, reverse: 5′-[…]-3′; AADC forward: 5′-[…]-3′, reverse: 5′-[…]-3′; VMAT2 forward: 5′-[…]-3′, reverse: 5′-[…]-3′; c-Ret forward: 5′-[…]-3′, reverse: 5′-[…]-3′; TNFα forward: 5′-[…]-3′; reverse: 5′-[…]-3′; GAPDH, forward 5′-[…]-3′, reverse 5′-[…]-3′.
Briefly, dissected VM brain tissues were collected in ice-cold Dulbecco’s phosphate-buffered saline (DPBS) and then mechanically dissociated using pipettes. Thereafter, dissociated tissues were incubated in 0.05 % Trypsin-EDTA (Invitrogen) for 5 min at 37 °C. The cell suspension was plated onto glass coverslips in 48-well plates pre-coated with […] poly-L-ornithine, 5 μg/ml Fibronectin or 1 μg/ml Laminin at a density of 2.0 × 10^5 cells/cm^2 in differentiation medium (1% heat-inactivated FBS, 2 mM L-glutamine, 50X B27 supplement, 100 μM ascorbic acid and 2 μg/ml bFGF in Neurobasal media).

TNFα gene = experiment: LPS-induced TNFα gene expression in BV2 cells, qRT-PCR; type: cell-based, mouse; details: for EC50: Mus musculus, BV-2; for Relative TNFα expression (% of control): Fig. S6, LPS
Description: SK-N-BE(2)C human neuroblastoma, BV2 mouse microglia (ATCC), HeLa and MN9D cell lines were cultured in Dulbecco’s Modified Eagle Medium (DMEM) supplemented with 10% fetal bovine serum (FBS) and 100 U /ml penicillin and 100 μg /ml streptomycin. The murine MN9D dopaminergic cell line was kindly provided by Drs. Michael Zigmond and Juliann Jaumotte from the University of Pittsburgh. The N27-A rat dopaminergic cell line was kindly provided by Dr. Curt Freed from the University of Colorado School of Medicine. […] For transactivity assay, SK-N-BE(2)C and N27-A cell lines were transfected with pCMV-fNurr1, pGAL-Nurr1(LBD), pGAL-Nor1(LBD) or pGAL-Nur77(LBD) and reporter construct (p4xNL3-Luc for fNurr1 or p8xUAS-Luc for LBD constructs). pRSV-β-gal was co-transfected as an internal control. Cells were lysed in a lysis buffer (25 mM Tris-phosphate (pH 7.8), 2 mM DTT, 2 mM DCTA (1,2-diaminocyclohexane-N,N,N′,N′-tetraacetic acid), 10% glycerol, and 1% Triton X-100) 24 h after transfection, followed by adding firefly luciferase substrate for luminescence detection measured by a luminometer plate reader (SpectraMax®; Molecular device). Nurr1 transactivity was normalized to β-galactosidase activity. […] For Nurr1 stability determination, MN9D cells were incubated with MPP^+ (0.5 mM) for 2, 4, 8, 16, 24, and 32 h, or were transduced with lentivirus expressing GFP only or αSyn (wild-type or A53T) then harvested 24, 48 and 72 h after transduction. For autophagolysosome (APL) formation assay, HeLa and N27-A cells were transfected with mRFP-GFP-LC3 (Addgene) using Lipofectamine 2000 (Invitrogen). The medium was changed with starvation medium (Earle’s Balanced Salt Solution; EBSS) 24 h after transfection for autophagy induction.
as §1

CCN(CC)CCCC(C)Nc1ccnc2cc(Cl)ccc12 (stereo not shown) [CQ, chloroquine]
Latency to fall (MPTP-induced male mice): 188.53 s and 158.67 s and 132.1 s and 179.3 s and 127.13 s and 200.87 s and 173.6 s and 164.1 s
motor deficits, cylinder test (rearing) (in words) [1]: partial recovery
dopaminergic gene expression (in words) [2]: significantly rescued
EC50 (TNFα gene): ~100 nM

CCN1CCN(c2cc(N3CCN(CC)CC3)nc(NCCNc3ccnc4cc(Cl)ccc34)n2)CC1 [4A7C-301, N^1-(4,6-bis(4-ethylpiperazin-1-yl)pyrimidin-2-yl)-N^2-(7-chloroquinolin-4-yl)ethane-1,2-diamine]
motor function, rotarod (in words) (MPTP-induced male mice; CQ 40, 4A7C-301 5, L-DOPA 50 mg/kg/day, i.p., 16 days): significantly rescued
Latency to fall (MPTP-induced male mice): 133.23 s and 202.2 s and 133.57 s and 139.3 s and 213.2 s and 211.5 s and 122.9 s and 231.93 s
motor deficits, cylinder test (rearing) (in words) [1]: improved motor deficits
Relative mRNA levels (fold of Control), AADC ([2]; Fig. S5f/S5g, with 6-OHDA): 1.28 fold of Control and 1.13 fold of Control and 1.203 fold of Control
Relative mRNA levels (fold of Control), DAT ([2]; Fig. S5f/S5g, with 6-OHDA): 1.197 fold of Control and 1.193 fold of Control and 1.282 fold of Control
Relative mRNA levels (fold of Control), TH ([2]; Fig. S5f/S5g, with 6-OHDA): 0.9704 fold of Control and 1 fold of Control and 1.046 fold of Control
Relative mRNA levels (fold of Control), VMAT2 ([2]; Fig. S5f/S5g, with 6-OHDA): 0.9594 fold of Control and 0.8951 fold of Control and 0.9343 fold of Control
Relative mRNA levels (fold of Control), c-Ret ([2]; Fig. S5f/S5g, with 6-OHDA): 0.9509 fold of Control and 0.8338 fold of Control and 0.9285 fold of Control
Relative mRNA levels (fold of Control), AADC ([2]; Fig. S5f/S5g, without 6-OHDA): 1.446 fold of Control and 1.683 fold of Control and 1.592 fold of Control
Relative mRNA levels (fold of Control), DAT ([2]; Fig. S5f/S5g, without 6-OHDA): 2.907 fold of Control and 2.949 fold of Control and 3.159 fold of Control
Relative mRNA levels (fold of Control), TH ([2]; Fig. S5f/S5g, without 6-OHDA): 2.273 fold of Control and 2.094 fold of Control and 2.264 fold of Control
Relative mRNA levels (fold of Control), VMAT2 ([2]; Fig. S5f/S5g, without 6-OHDA): 1.573 fold of Control and 1.37 fold of Control and 1.5834 fold of Control
Relative mRNA levels (fold of Control), c-Ret ([2]; Fig. S5f/S5g, without 6-OHDA): 1.652 fold of Control and 1.7584 fold of Control and 1.7573 fold of Control
Relative mRNA levels (fold of Control), AADC ([2]; Fig. S5h/S5i, with 6-OHDA): 0.268 fold of Control and 0.3023 fold of Control and 0.2821 fold of Control
Relative mRNA levels (fold of Control), DAT ([2]; Fig. S5h/S5i, with 6-OHDA): 0.1919 fold of Control and 0.1982 fold of Control and 0.2381 fold of Control
Relative mRNA levels (fold of Control), TH ([2]; Fig. S5h/S5i, with 6-OHDA): 0.3682 fold of Control and 0.3362 fold of Control and 0.3267 fold of Control
Relative mRNA levels (fold of Control), VMAT2 ([2]; Fig. S5h/S5i, with 6-OHDA): 0.2168 fold of Control and 0.2497 fold of Control and 0.2445 fold of Control
Relative mRNA levels (fold of Control), c-Ret ([2]; Fig. S5h/S5i, with 6-OHDA): 0.2351 fold of Control and 0.2454 fold of Control and 0.2588 fold of Control
Relative mRNA levels (fold of Control), AADC ([2]; Fig. S5h/S5i, without 6-OHDA): 0.385 fold of Control and 0.3813 fold of Control and 0.3915 fold of Control
Relative mRNA levels (fold of Control), DAT ([2]; Fig. S5h/S5i, without 6-OHDA): 0.3184 fold of Control and 0.317 fold of Control and 0.3059 fold of Control
Relative mRNA levels (fold of Control), TH ([2]; Fig. S5h/S5i, without 6-OHDA): 0.5668 fold of Control and 0.4913 fold of Control and 0.5193 fold of Control
Relative mRNA levels (fold of Control), VMAT2 ([2]; Fig. S5h/S5i, without 6-OHDA): 0.4847 fold of Control and 0.4471 fold of Control and 0.4495 fold of Control
Relative mRNA levels (fold of Control), c-Ret ([2]; Fig. S5h/S5i, without 6-OHDA): 0.4648 fold of Control and 0.44 fold of Control and 0.4811 fold of Control
dopaminergic gene expression (in words) [2]: significantly rescued
Relative TNFα expression (% of control) (TNFα gene; Conc. 0.0001 µM): 72.3049 % of control and 70.453 % of control and 74.7916 % of control
Relative TNFα expression (% of control) (TNFα gene; Conc. 0.001 µM): 45.7586 % of control and 44.0429 % of control and 42.816 % of control
Relative TNFα expression (% of control) (TNFα gene; Conc. 0.01 µM): 26.6218 % of control and 26.6304 % of control and 26.1645 % of control
Relative TNFα expression (% of control) (TNFα gene; Conc. 0.1 µM): 25.1791 % of control and 23.3247 % of control and 22.8855 % of control
Relative TNFα expression (% of control) (TNFα gene; Conc. 1 µM): 21.147 % of control and 21.3464 % of control and 19.5073 % of control
EC50 (TNFα gene; suppression of LPS-induced TNFα gene, BV2 cells, read-out: EC50): ~1 nM
